The record followed here is ChEMBL document CHEMBL1201862, “PubChem BioAssay data set” (2004).

Active and inactive are the calls of the source.

Test [1] in a line: NIH3T3 cell viability loss – ATP luminescence, mouse fibroblasts, counter-screen, dose response (AID 2010).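 Also: cells exposed to compound for about 90 hours before reading.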 It is filed as functional, cell-based. For orientation: A counterscreen serves to expose hits that act by an unwanted route or on another target.
The subject of test [2] is INS1. Put plainly: INS-1E survival protection against cytokine death – cell-based, luminescence, retest, dose response (AID 449756).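 Also: cell death triggered by IL-1 beta plus TNF-alpha plus IFN-gamma mixture; protective hits raise ATP signal compared with cytokine alone wells.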 The class given is functional. The conditions noted are these: Rattus norvegicus.
A short description of test [3]: HIV-1 Vif–A3G interaction blockers – biochemical, TR-FRET, GST-Vif 1-94, biotin-A3G peptide, dose response retest, primary screen (AID 1117319).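 Also: TR-FRET signal of purified GST-Vif binding a biotinylated A3G peptide; inhibitors lower the FRET signal by blocking Vif and A3G binding.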 The class given is functional.
Test [4] has as its target T1, Coagulation factor XII (Homo sapiens, UniProt P00748).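 Also: activated factor XIIa alpha cleaving a fluorogenic AMC peptide substrate; inhibitor potency from loss of enzyme activity.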
T1 sequence (P00748 whole entry): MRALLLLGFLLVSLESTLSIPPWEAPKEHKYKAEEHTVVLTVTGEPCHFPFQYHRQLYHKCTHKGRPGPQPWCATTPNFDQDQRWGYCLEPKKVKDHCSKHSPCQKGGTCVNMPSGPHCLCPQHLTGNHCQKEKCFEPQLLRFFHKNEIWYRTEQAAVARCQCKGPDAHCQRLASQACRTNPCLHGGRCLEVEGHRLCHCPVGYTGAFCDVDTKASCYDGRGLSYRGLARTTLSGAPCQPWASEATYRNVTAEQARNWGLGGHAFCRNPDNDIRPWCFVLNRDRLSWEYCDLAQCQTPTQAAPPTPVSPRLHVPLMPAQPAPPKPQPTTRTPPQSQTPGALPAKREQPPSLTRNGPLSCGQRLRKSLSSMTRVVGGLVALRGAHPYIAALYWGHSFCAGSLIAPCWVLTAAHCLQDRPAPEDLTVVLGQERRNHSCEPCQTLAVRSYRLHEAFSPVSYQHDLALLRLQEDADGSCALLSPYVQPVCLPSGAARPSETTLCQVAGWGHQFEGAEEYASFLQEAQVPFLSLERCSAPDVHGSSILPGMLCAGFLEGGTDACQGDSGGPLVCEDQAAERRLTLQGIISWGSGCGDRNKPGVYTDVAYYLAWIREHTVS
The class given is functional.

Test [5] can be described thus: viability loss in Vero cells – cytotoxicity control for Vif-APOBEC3G degradation inhibitor project, dose response (AID 1117358). As to conditions: Vero. It is filed as functional.
Test [6] in a line: Trypanosoma cruzi growth suppression in host cells – NIH3T3 host cells, beta-gal luminescence, confirmation (AID 2044).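 Also: intracellular parasites grown in NIH/3T3 mouse fibroblasts as host cells; luminescent beta-galactosidase reporter signal from transgenic T. cruzi replicating inside host cells; inhibitors lower the luminescence signal.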 The class given is functional, cell-based.
Test [7] deals with Glutathione-S-transferase (Schistosoma japonicum, UniProt Q26513). Put plainly: GST-antibody interaction or FRET quenching – biochemical, TR-FRET, artefact control for Vif-APOBEC3G degradation inhibitor project, dose response (AID 1117362). The class given is functional. On the technique in general: TR-FRET usually uses a lanthanide donor and a delayed reading to cut background.

Test [8] addresses T2, Oxysterols receptor LXR-beta (Homo sapiens, UniProt P55055).
T2 sequence (P55055 whole entry): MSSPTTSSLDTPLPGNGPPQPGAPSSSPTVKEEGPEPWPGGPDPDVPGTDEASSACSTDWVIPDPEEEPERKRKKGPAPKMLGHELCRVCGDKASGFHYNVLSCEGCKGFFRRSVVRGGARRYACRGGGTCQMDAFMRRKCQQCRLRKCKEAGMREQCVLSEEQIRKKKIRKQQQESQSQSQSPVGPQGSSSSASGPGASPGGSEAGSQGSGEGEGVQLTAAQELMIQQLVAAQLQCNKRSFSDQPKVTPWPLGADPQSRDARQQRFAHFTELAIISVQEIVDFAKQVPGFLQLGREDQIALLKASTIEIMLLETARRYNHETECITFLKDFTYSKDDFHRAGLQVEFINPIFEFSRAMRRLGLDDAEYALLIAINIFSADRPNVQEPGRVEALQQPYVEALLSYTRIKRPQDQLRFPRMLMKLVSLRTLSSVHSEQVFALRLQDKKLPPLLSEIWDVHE
Description: LXR agonists, Gal4 luciferase reporter, dose response, counter-screen for ssDAF-12 agonist project, cell-based, luminescence, HEK293, S. stercoralis campaign (AID 720737). The class given is functional. As to conditions: read-out: IC50 (the source's name). (In general: A reporter such as luciferase makes a cellular process visible.)

Test [9] in a line: Luminescence-based cell-based high throughput dose response assay to identify activators of the DAF-12 from the parasite S. stercoralis (ssDAF-12). The class given is functional.
A short description of test [10]: antimalarial activity against Dd2 parasites – SYBR Green fluorescence, erythrocytes, dry powder, set 2, dose response (AID 1159574). The class given is functional, cell-based.
For test [11], the target named is RNA-editing ligase 1, mitochondrial (Trypanosoma brucei brucei, UniProt P86926). Put plainly: inhibition of trypanosome RNA editing ligase – biochemical, fluorescence, Trypanosoma brucei, dose response (AID 1117295). It is filed as functional.
A short description of test [12]: Dd2 parasite growth inhibition in erythrocytes – SYBR Green, dry powder samples, set 9, dose response (AID 1159568). The class given is functional, cell-based.
Test [13] is described as follows: P. falciparum Dd2 growth inhibitors, dose response, SYBR Green, cherry-picked samples (AID 1159567). The class given is functional, cell-based.
Test [14] in a line: growth inhibition of PfATP4-mutant resistant parasites – NITD609-resistant line, SYBR Green, dry powder, dose response (AID 1159571).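 Also: parasites synchronized at ring stage by sorbitol before testing.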 The class given is functional, cell-based.
A short description of test [15]: Dd2 malaria parasite growth inhibition potency – SYBR Green, dry powder samples, dose response (AID 1159566).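 Also: potency for growth inhibition with lower SYBR green DNA signal.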 The class given is functional, cell-based.
Test [16] can be described thus: growth inhibition of yeast DHODH-expressing 3D7 parasites – SYBR Green, dry powder samples, dose response (AID 1159570).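 Also: parasite growth measured after 72 hours of compound exposure.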 The class given is functional, cell-based.
A short description of test [17]: toxicity to human HepG2 hepatoma cells – cell-based, plate reader, dry powder samples, cytotoxicity control, dose response (AID 1159569).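 Also: inhibitor potency with signal falling toward the positive control level.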 The class given is functional.
The nature of test [18]: TB: CFU replicating Measured in Microorganism System Using Imaging - 7108-05_Inhibitor_Dose_DryPowder_Activity_Set2. It is filed as functional.
Test [19] addresses Heat shock protein HSP 90-alpha (Homo sapiens, UniProt P07900). It is filed as functional, organism-based.
A short description of test [20]: CellTiter-Glo luminescence survival assay, SW480 colon tumor line, concentration-response curve, half-maximal inhibitory concentration (AID 1117338). The class given is functional.
Test [21] can be described thus: cytotoxicity toward HCT116 cells – cell-based, CellTiter-Glo luminescence, IC50, dose response (AID 1117332). It is filed as functional. The conditions noted are these: HCT-116.
Test [22] can be described thus: glucagon-like peptide-1 release potency in STC-1, concentration-response, half-maximal inhibitory concentration in the STC-1 line (AID 1117345). The class given is functional, cell-based.
Test [23] is described as follows: RKO cell viability reduction, dose response, CellTiter-Glo luminescence (AID 1117322). The class given is functional.
Test [24] in a line: Potency on glucagon-like peptide 1 release, dose-response in NCI-H716 cell line, half maximal inhibitory concentration (AID 1117344). It is filed as functional, cell-based.
Test [25] is described as follows: cytotoxicity toward HT-29 cells – cell-based, CellTiter-Glo luminescence, IC50, dose response (AID 1117330). The class given is functional.
Test [26] is described as follows: microbe, parasite or virus in culture. The class given is functional. The conditions noted are these: Mycobacterium tuberculosis.
Test [27] is described as follows: SNU-C1 cell viability reduction, dose response, CellTiter-Glo luminescence (AID 1117323). The class given is functional, cell-based.
The nature of test [28]: Reduced DLD-1 viability, concentration-response, CellTiter-Glo luminescence (AID 1117352). The class given is functional.
Test [29] deals with T3, Ubiquitin-conjugating enzyme E2 N (Homo sapiens, UniProt P61088).
T3 sequence (P61088 whole entry): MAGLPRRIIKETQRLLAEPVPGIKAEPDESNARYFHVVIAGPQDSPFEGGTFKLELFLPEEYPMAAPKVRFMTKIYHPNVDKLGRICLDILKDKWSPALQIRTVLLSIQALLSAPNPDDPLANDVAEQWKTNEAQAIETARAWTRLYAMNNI
It is filed as functional.

The nature of test [30]: HCT116 cell viability decrease, GSK3B pretreatment – CellTiter-Glo, IC50, dose response (AID 1117339). The class given is functional. As to conditions: HCT-116.
A short description of test [31]: cytotoxicity toward Colo320 cells – cell-based, CellTiter-Glo luminescence, IC50, dose response (AID 1117334). The class given is functional. The conditions noted are these: COLO 320.
Test [32] in a line: rise of 2N DNA cells, HeLa – IC50, dose response (AID 1117349). It is filed as functional, cell-based.
Test [33] can be described thus: rise of 4N DNA cells, HeLa – IC50, dose response (AID 1117351). It is filed as functional, cell-based.

The term AC50 denotes the concentration giving half of the maximal activity seen. By IC50 is commonly meant the concentration at which inhibition is half-maximal.

Chain of RNA-editing ligase 1, mitochondrial (P86926 whole entry): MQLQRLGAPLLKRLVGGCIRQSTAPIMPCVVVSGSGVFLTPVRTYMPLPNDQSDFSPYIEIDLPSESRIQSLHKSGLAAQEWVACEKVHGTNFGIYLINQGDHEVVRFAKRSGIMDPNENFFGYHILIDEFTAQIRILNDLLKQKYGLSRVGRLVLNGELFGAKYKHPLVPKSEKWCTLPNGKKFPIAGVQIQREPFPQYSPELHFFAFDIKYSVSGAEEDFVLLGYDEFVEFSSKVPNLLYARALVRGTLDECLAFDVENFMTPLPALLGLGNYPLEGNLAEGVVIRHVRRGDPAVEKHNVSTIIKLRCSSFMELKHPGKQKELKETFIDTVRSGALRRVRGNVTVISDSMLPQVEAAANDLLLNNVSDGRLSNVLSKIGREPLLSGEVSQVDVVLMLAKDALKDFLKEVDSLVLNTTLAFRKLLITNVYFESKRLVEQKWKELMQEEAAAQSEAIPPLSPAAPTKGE
Chain of Glutathione-S-transferase (Q26513 whole entry): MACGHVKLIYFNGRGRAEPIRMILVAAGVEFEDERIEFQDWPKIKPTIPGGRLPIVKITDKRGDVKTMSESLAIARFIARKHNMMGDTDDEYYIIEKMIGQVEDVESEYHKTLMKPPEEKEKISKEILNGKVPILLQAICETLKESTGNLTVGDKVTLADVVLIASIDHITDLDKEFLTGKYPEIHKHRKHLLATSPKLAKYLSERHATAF

For the compound `Cc1ccccc1N1CCN(Cc2c[nH]c3ccccc23)CC1`, the EC50 was > 60 µM (not active) in test [1] and 0.623 µM (active) in [6]. Moreover, the AC50 in test [2] is 7.61 µM (active). Also, the IC50 in test [3] was > 100 µM (active); in [4], > 50 µM (inactive). Further, the CC50 in test [5] is > 40 µM (active).

For `CCN1CCN(c2ccc(NC(=O)Cc3ccccc3)cc2)CC1`, the IC50 in test [3] and in test [7] was > 100 µM (active) each time.

Take `O=C(Cc1ccccc1[N+](=O)[O-])NCCc1ccc(F)cc1`: the EC50 in [8] is > 67.6 µM (inactive). Further, the IC50 in test [9] was > 67.6 µM (inactive).

Regarding `COc1ccc(S(=O)(=O)N(C)C[C@H]2OCc3ccccc3-c3c(n(C)c4ccccc34)C(=O)N([C@H](C)CO)C[C@H]2C)cc1`, the AC50 in test [10] was 6.22 µM (active).

Turning to `COC(=O)C1=C(C)N(Cc2ccccc2C(F)(F)F)C(NCc2ccc(OC)cc2)=NC1c1cccc(Cl)c1` (centres undefined), in test [11], the IC50 is > 96.6 µM (inactive).

For `Cc1ccc(S(=O)(=O)N(C)C[C@@H]2Oc3cc(C#CC4CCCC4)ccc3S(=O)(=O)N([C@@H](C)CO)C[C@H]2C)cc1`, the AC50 in test [12] is 1.33 µM (active).

Turning to `COc1ccc(C#Cc2ccc([C@@H]3[C@@H](CO)N4CCCCN(C(=O)Nc5ccccc5F)C[C@H]34)cc2)cc1`, the AC50 in test [13] is 1.89 µM (active); in test [14] it was 1.45 µM (active); in test [15], 0.8 µM (active); in test [16], 1.37 µM (active); in test [17], 15.7 µM (active).

For the compound `Cc1cccc(C(=O)Nc2nc3ccccc3n2C)c1`, the AbsAC90 in [18] was 360.23 µM.

On to `Clc1ccc(CCC(Cn2ccnc2)Sc2c(Cl)cccc2Cl)cc1` (centres undefined) [BUTOCONAZOLE NITRATE], for which, in test [19], the concentration at half-maximal activity (AC50) was < 0.195 µM (active). In addition, the IC50 in test [20] is 1.69 µM (active); in [21] it was 2.06 µM (active); in test [22] it was 7 µM (inactive); in [23] it was 2.3 µM (active); in test [24], 16 µM (inactive); in test [25] it was 3.01 µM (active). Further, the IC50 in test [27] is 0.996 µM (active); in test [28], 1.84 µM (active); in test [29], > 20 µM (inactive); in test [30], 0.841 µM (active); in test [31], 0.221 µM (active). In addition, the CC50 in [26] was 37.6 µM (active).

Regarding `COc1cc(-c2ccc(=O)[nH]n2)ccc1OC(F)F` [ZARDAVERINE], the IC50 in test [32] and in [33] was > 10 µM (inactive) in each case.
